Results reported in patent US9802997B2, “Peptides and combination of peptides for use in immunotherapy against various tumors” (immatics biotechnologies GmbH, priority 2015, dated 2017).

Assays:
[1] = test system: CD8+ T cells of healthy HLA-A*02 donors; assay: In vitro immunogenicity: in vitro T-cell priming with aAPCs loaded with peptide/MHC complexes and anti-CD28 antibody, pMHC multimer readout; format: cell-based, human; conditions: HLA-A*02 restricted peptides; percentage of positive wells among evaluable
Excerpt: In order to obtain information regarding the immunogenicity of the TUMAPs of the present invention, the inventors performed investigations using an in vitro T-cell priming assay based on repeated stimulations of CD8+ T cells with artificial antigen presenting cells (aAPCs) loaded with peptide/MHC complexes and anti-CD28 antibody.
In order to perform in vitro stimulations by artificial antigen presenting cells loaded with peptide-MHC complex (pMHC) and anti-CD28 antibody, the inventors first isolated CD8+ T cells from fresh HLA-A*02 leukapheresis products via positive selection using CD8 microbeads (Miltenyi Biotec, Bergisch-Gladbach, Germany) of healthy donors obtained from the University clinics Mannheim, Germany, after informed consent. PBMCs and isolated CD8+ lymphocytes were incubated in T-cell medium (TCM) until use consisting of RPMI-Glutamax (Invitrogen, Karlsruhe, Germany) supplemented with 10% heat inactivated human AB serum (PAN-Biotech, Aidenbach, Germany), 100 U/ml Penicillin/100 μg/ml Streptomycin (Cambrex, Cologne, Germany), 1 mM sodium pyruvate (CC Pro, Oberdorla, Germany), 20 μg/ml Gentamycin (Cambrex). 2.5 ng/ml IL-7 (PromoCell, Heidelberg, Germany) and 10 U/ml IL-2 (Novartis Pharma, Nürnberg, Germany) were also added to the TCM at this step. Generation of pMHC/anti-CD28 coated beads, T-cell stimulations and readout was performed in a highly defined in vitro system using four different pMHC molecules per stimulation condition and 8 different pMHC molecules per readout condition.
The purified co-stimulatory mouse IgG2a anti human CD28 Ab 9.3 (Jung et al., 1987) was chemically biotinylated using Sulfo-N-hydroxysuccinimidobiotin as recommended by the manufacturer (Perbio, Bonn, Germany). Beads used were 5.6 μm diameter streptavidin coated polystyrene particles (Bangs Laboratories, Illinois, USA).
pMHC used for positive and negative control stimulations were A*0201/MLA-001 (peptide […] (SEQ ID NO. 289) from modified Melan-A/MART-1) and A*0201/DDX5-001 ([…] from DDX5, SEQ ID NO. 290), respectively.
800.000 beads/200 μl were coated in 96-well plates in the presence of 4×12.5 ng different biotin-pMHC, washed and 600 ng biotin anti-CD28 were added subsequently in a volume of 200 μl. Stimulations were initiated in 96-well plates by co-incubating 1×10^6 CD8+ T cells with 2×10^5 washed coated beads in 200 μl TCM supplemented with 5 ng/ml IL-12 (PromoCell) for 3 days at 37° C. Half of the medium was then exchanged by fresh TCM supplemented with 80 U/ml IL-2 and incubating was continued for 4 days at 37° C. This stimulation cycle was performed for a total of three times. For the pMHC multimer readout using 8 different pMHC molecules per condition, a two-dimensional combinatorial coding approach was used as previously described (Andersen et al., 2012) with minor modifications encompassing coupling to 5 different fluorochromes. Finally, multimeric analyses were performed by staining the cells with Live/dead near IR dye (Invitrogen, Karlsruhe, Germany), CD8-FITC antibody clone SK1 (BD, Heidelberg, Germany) and fluorescent pMHC multimers. For analysis, a BD LSRII SORP cytometer equipped with appropriate lasers and filters was used. Peptide specific cells were calculated as percentage of total CD8+ cells. Evaluation of multimeric analysis was done using the FlowJo software (Tree Star, Oregon, USA). In vitro priming of specific multimer+CD8+ lymphocytes was detected by comparing to negative control stimulations.

HLA-A*02:01 = HLA-A*02:01 (Homo sapiens, UniProt P04439, D140Y/D185E/D98H/E176V/E277Q/G131W/G231S/I119V/I121R/I166T/I218V/L300P/L318F/N151K/N90K/P208A/P217A/Q86G/Q94H/R138H/R169H/T345S); assay: MHC binding assay (UV-ligand exchange, beta2m ELISA); conditions: binding to HLA-A*02:01, β2m ELISA
In short: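 Exchange yield is an ELISA read-out: complexes diluted 100-fold, captured on streptavidin plates, detected with HRP anti-β2m and TMB at 450 nm. Standard curve from refolded HLA-A*02:01/MLA-001 (15-500 ng/ml); complexes made by UV-triggered displacement of a photolabile ligand by test peptide.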

Substance: 50 (ILLSVLHQL; listed as Homo sapiens) [compound 50]
- Wells positive [%] [1]: + (<20% = +)
- Peptide exchange (MHC class I binding score, peptide exchange yield) (HLA-A*02:01): +++ (≧50 = +++)

Substance: 255 (FLMKNSDLYGA; listed as Homo sapiens) [compound 255]
- Wells positive [%] [1]: + (<20% = +)
- Peptide exchange (MHC class I binding score, peptide exchange yield) (HLA-A*02:01): +++ (≧50 = +++)

Substance: 66 (AMFPDTIPRV; listed as Homo sapiens) [compound 66]
- Wells positive [%] [1]: + (<20% = +)
- Peptide exchange (MHC class I binding score, peptide exchange yield) (HLA-A*02:01): ++ (≧20% = ++)

Substance: 236 (KMSELQTYV; listed as Homo sapiens) [compound 236]
- Wells positive [%] [1]: + (<20% = +)
- Peptide exchange (MHC class I binding score, peptide exchange yield) (HLA-A*02:01): +++ (≧50 = +++)

Substance: 34 (TLNTLDINL; listed as Homo sapiens) [compound 34]
- Wells positive [%] [1]: ++++ (>=70% = ++++)
- Peptide exchange (MHC class I binding score, peptide exchange yield) (HLA-A*02:01): +++ (≧50 = +++)

Substance: 97 (KLFEKSTGL; listed as Homo sapiens) [compound 97]
- Wells positive [%] [1]: + (<20% = +)
- Peptide exchange (MHC class I binding score, peptide exchange yield) (HLA-A*02:01): +++ (≧50 = +++)

Substance: 35 (VIIKGLEEI; listed as Homo sapiens) [compound 35]
- Wells positive [%] [1]: + (<20% = +)
- Peptide exchange (MHC class I binding score, peptide exchange yield) (HLA-A*02:01): ++ (≧20% = ++)

Substance: 102 (GLYPVTLVGV; listed as Homo sapiens) [compound 102]
- Wells positive [%] [1]: + (<20% = +)
- Peptide exchange (MHC class I binding score, peptide exchange yield) (HLA-A*02:01): +++ (≧50 = +++)

Substance: 39 (YLEDGFAYV; listed as Homo sapiens) [compound 39]
- Wells positive [%] [1]: ++++ (>=70% = ++++)
- Peptide exchange (MHC class I binding score, peptide exchange yield) (HLA-A*02:01): +++ (≧50 = +++)

Substance: 157 (ILQDGQFLV; listed as Homo sapiens) [compound 157]
- Wells positive [%] [1]: + (<20% = +)
- Peptide exchange (MHC class I binding score, peptide exchange yield) (HLA-A*02:01): ++ (≧20% = ++)

Substance: 260 (ALNESLVEC; listed as Homo sapiens) [compound 260]
- Wells positive [%] [1]: + (<20% = +)
- Peptide exchange (MHC class I binding score, peptide exchange yield) (HLA-A*02:01): +++ (≧50 = +++)

Substance: 233 (SLFESLEYL; listed as Homo sapiens) [compound 233]
- Wells positive [%] [1]: + (<20% = +)
- Peptide exchange (MHC class I binding score, peptide exchange yield) (HLA-A*02:01): +++ (≧50 = +++)

Substance: 246 (ALAGIVTNV; listed as Homo sapiens) [compound 246]
- Wells positive [%] [1]: + (<20% = +)
- Peptide exchange (MHC class I binding score, peptide exchange yield) (HLA-A*02:01): +++ (≧50 = +++)

Substance: 9 (SLITGQDLLSV; listed as Homo sapiens) [compound 9]
- Wells positive [%] [1]: + (<20% = +)
- Peptide exchange (MHC class I binding score, peptide exchange yield) (HLA-A*02:01): +++ (≧50 = +++)

Substance: 27 (GLLGKVTSV; listed as Homo sapiens) [compound 27]
- Wells positive [%] [1]: + (<20% = +)
- Peptide exchange (MHC class I binding score, peptide exchange yield) (HLA-A*02:01): +++ (≧50 = +++)

Substance: 257 (KLIDHQGLYL; listed as Homo sapiens) [compound 257]
- Wells positive [%] [1]: + (<20% = +)
- Peptide exchange (MHC class I binding score, peptide exchange yield) (HLA-A*02:01): +++ (≧50 = +++)

Substance: 17 (GLLPSAESIKL; listed as Homo sapiens) [compound 17]
- Wells positive [%] [1]: + (<20% = +)
- Peptide exchange (MHC class I binding score, peptide exchange yield) (HLA-A*02:01): ++++ (≧75% = ++++)

Substance: 77 (ALYGNVQQV; listed as Homo sapiens) [compound 77]
- Wells positive [%] [1]: + (<20% = +)
- Peptide exchange (MHC class I binding score, peptide exchange yield) (HLA-A*02:01): +++ (≧50 = +++)

Substance: 254 (ALGDKFLLRV; listed as Homo sapiens) [compound 254]
- Wells positive [%] [1]: + (<20% = +)
- Peptide exchange (MHC class I binding score, peptide exchange yield) (HLA-A*02:01): ++ (≧20% = ++)

Substance: 267 (YLLDMPLWYL; listed as Homo sapiens) [compound 267]
- Wells positive [%] [1]: + (<20% = +)
- Peptide exchange (MHC class I binding score, peptide exchange yield) (HLA-A*02:01): +++ (≧50 = +++)

Substance: 4 (VLFGELPAL; listed as Homo sapiens) [compound 4]
- Wells positive [%] [1]: + (<20% = +)
- Peptide exchange (MHC class I binding score, peptide exchange yield) (HLA-A*02:01): +++ (≧50 = +++)

Substance: 29 (KMISAIPTL; listed as Homo sapiens) [compound 29]
- Wells positive [%] [1]: + (<20% = +)
- Peptide exchange (MHC class I binding score, peptide exchange yield) (HLA-A*02:01): ++ (≧20% = ++)

Substance: 89 (SLAETIFIV; listed as Homo sapiens) [compound 89]
- Wells positive [%] [1]: + (<20% = +)
- Peptide exchange (MHC class I binding score, peptide exchange yield) (HLA-A*02:01): +++ (≧50 = +++)

Substance: 121 (ALYVQAPTV; listed as Homo sapiens) [compound 121]
- Wells positive [%] [1]: + (<20% = +)
- Peptide exchange (MHC class I binding score, peptide exchange yield) (HLA-A*02:01): ++ (≧20% = ++)

Substance: 242 (KLQEEIPVL; listed as Homo sapiens) [compound 242]
- Wells positive [%] [1]: + (<20% = +)
- Peptide exchange (MHC class I binding score, peptide exchange yield) (HLA-A*02:01): +++ (≧50 = +++)

Substance: 263 (SIIEYLPTL; listed as Homo sapiens) [compound 263]
- Wells positive [%] [1]: + (<20% = +)
- Peptide exchange (MHC class I binding score, peptide exchange yield) (HLA-A*02:01): +++ (≧50 = +++)
